biological target: T1, human IL-17AA (Homo sapiens, UniProt Q16552); assay: IL-8 release assay in human epithelial keratinocytes adult (HEKa); type: cell-based; settings: 3 ng/ml human IL-17AA + 10 ng/ml human TNFalpha, 68-72 h, IL-8 by HTRF, read-out: Rel EC50 L-8 release assay
T1 construct: host or cells: HEK (human embryonic kidney) cells
T1 sequence (Q16552 24-155) 1: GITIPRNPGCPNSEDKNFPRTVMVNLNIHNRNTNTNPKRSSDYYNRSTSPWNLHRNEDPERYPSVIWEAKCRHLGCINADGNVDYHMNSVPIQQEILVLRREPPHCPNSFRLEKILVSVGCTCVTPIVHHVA
T1 sequence (Q16552 24-155) 2: T1 sequence (Q16552 24-155) 1
How it was run: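 IL-8 secretion, quantified by HTRF (665/620 nm) as percent of controls, served as the readout after 68–72 h culture of HEKa cells with compound plus IL-17AA (3 ng/ml final) and TNF-alpha (10 ng/ml final). Four-parameter logistic curves gave relative IC50 and Emax.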

SMILES | EC50 [nM]
Cn1cnnc1-c1ccc(NC(=O)C(Cc2cc(-c3cccc(CC4CC4)c3)ccc2Cl)NC(=O)c2ccnn2C)cc1 (stereo not drawn) [Example 169, N-[1-[[2-chloro-5-[3-(cyclopropylmethyl)phenyl]phenyl]methyl]-2-[4-(4-methyl-1,2,4-triazol-3-yl)anilino]-2-oxo-ethyl]-2-methyl-pyrazole-3-carboxamide] | 100 to 1000
Cn1cnnc1-c1ccc(NC(=O)C(Cc2cc(-c3cccc(C4CC4)c3)ccc2Cl)NC(=O)c2ccnn2C)cc1 (stereo not drawn) [Example 170, N-[1-[[2-chloro-5-(3-cyclopropylphenyl)phenyl]methyl]-2-[4-(4-methyl-1,2,4-triazol-3-yl)anilino]-2-oxo-ethyl]-2-methyl-pyrazole-3-carboxamide] | 100 to 1000
CCCCn1cc(-c2ccc(Cl)c(C[C@H](NC(=O)c3ccnn3C)C(=O)Nc3ccc(-c4cncn4C)cc3)c2)cn1 [Example 171] | 100 to 1000
Cn1cnnc1-c1ccc(NC(=O)C(Cc2cc(-c3ccc(O)c(C(=O)N4CCC4)c3)ccc2Cl)NC(=O)c2ccnn2C)cc1 (stereo not drawn) [Example 172, N-[1-[[5-[3-(azetidine-1-carbonyl)-4-hydroxy-phenyl]-2-chloro-phenyl]methyl]-2-[4-(4-methyl-1,2,4-triazol-3-yl)anilino]-2-oxo-ethyl]-2-methyl-pyrazole-3-carboxamide] | > 1000
Cn1cnnc1-c1ccc(NC(=O)C(Cc2cc(-c3ccc(O)c(C(=O)N4CCNCC4)c3)ccc2Cl)NC(=O)c2ccnn2C)cc1 (stereo not drawn) [Example 173, N-[1-[[2-chloro-5-[4-hydroxy-3-(piperazine-1-carbonyl)phenyl]phenyl]methyl]-2-[4-(4-methyl-1,2,4-triazol-3-yl)anilino]-2-oxo-ethyl]-2-methyl-pyrazole-3-carboxamide] | > 1000
Cc1n[nH]cc1-c1ccc(NC(=O)[C@H](Cc2cc(-c3ccc(=O)n(C(C)C)c3)ccc2Cl)NC(=O)c2ccnn2C)cc1O [Example 174, N-[(1S)-1-[[2-chloro-5-(1-isopropyl-6-oxo-3-pyridyl)phenyl]methyl]-2-[3-hydroxy-4-(3-methyl-1H-pyrazol-4-yl)anilino]-2-oxo-ethyl]-2-methyl-pyrazole-3-carboxamide] | < 100
CC(C)n1cc(-c2ccc(Cl)c(C[C@H](NC(=O)c3ccnn3C)C(=O)Nc3ccc(-c4cn[nH]c4)c(O)c3)c2)ccc1=O [Example 175, N-[(1S)-1-[[2-chloro-5-(1-isopropyl-6-oxo-3-pyridyl)phenyl]methyl]-2-[3-hydroxy-4-(1H-pyrazol-4-yl)anilino]-2-oxo-ethyl]-2-methyl-pyrazole-3-carboxamide] | < 100
Cn1cncc1-c1ccc(NC(=O)C(Cc2cc(-c3cccc(C(C)(C)N)c3)ccc2Cl)NC(=O)c2ccnn2C)cc1 (stereo not drawn) [Example 176, N-[1-[[5-[3-(1-amino-1-methyl-ethyl)phenyl]-2-chloro-phenyl]methyl]-2-[4-(3-methylimidazol-4-yl)anilino]-2-oxo-ethyl]-2-methyl-pyrazole-3-carboxamide] | < 100
Cc1n[nH]c(C)c1-c1ccc(NC(=O)[C@H](Cc2cc(-c3ccc(=O)n(C(C)C)c3)ccc2Cl)NC(=O)c2ccnn2C)cc1O [Example 177, N-[(1S)-1-[[2-chloro-5-(1-isopropyl-6-oxo-3-pyridyl)phenyl]methyl]-2-[4-(3,5-dimethyl-1H-pyrazol-4-yl)-3-hydroxy-anilino]-2-oxo-ethyl]-2-methyl-pyrazole-3-carboxamide] | < 100
Cn1cnnc1-c1ccc(NC(=O)C(Cc2cc(-c3ccc(O)c(C4=NCCCO4)c3)ccc2Cl)NC(=O)c2ccnn2C)cc1 (stereo not drawn) [Example 178, N-[1-[[2-chloro-5-[3-(5,6-dihydro-4H-1,3-oxazin-2-yl)-4-hydroxy-phenyl]phenyl]methyl]-2-[4-(4-methyl-1,2,4-triazol-3-yl)anilino]-2-oxo-ethyl]-2-methyl-pyrazole-3-carboxamide] | 100 to 1000

The remaining lines, values ahead:

EC50 [nM] | SMILES
< 100 | Cn1cncc1-c1ccc(NC(=O)C(Cc2cc(-c3cccc(C(C)(C)O)c3)ccc2Cl)NC(=O)c2ccnn2C)cc1 (stereo not drawn) [Example 179, N-[1-[[2-chloro-5-[3-(1-hydroxy-1-methyl-ethyl)phenyl]phenyl]methyl]-2-[4-(3-methylimidazol-4-yl)anilino]-2-oxo-ethyl]-2-methyl-pyrazole-3-carboxamide]
< 100 | Cc1ncn(C)c1-c1ccc(NC(=O)[C@H](Cc2cc(-c3cccc(C(C)(C)O)c3)ccc2Cl)NC(=O)c2ccnn2C)cc1 [Example 181, N-[(1S)-[[2-chloro-5-[3-(1-hydroxy-1-methyl-ethyl)phenyl]phenyl]methyl]-2-[4-(3,5-dimethylimidazol-4-yl)anilino]-2-oxo-ethyl]-2-methyl-pyrazole-3-carboxamide]
< 100 | Cc1ncn(C)c1-c1ccc(NC(=O)[C@H](Cc2cc(-c3cnn(C(C)(C)C)c3)ccc2Cl)NC(=O)c2ccnn2C)cc1 [Example 182, N-[(1S)-1-[[5-(1-tert-butylpyrazol-4-yl)-2-chloro-phenyl]methyl]-2-[4-(3,5-dimethylimidazol-4-yl)anilino]-2-oxo-ethyl]-2-methyl-pyrazole-3-carboxamide]
100 to 1000 | Cn1cncc1-c1ccc(NC(=O)C(Cc2cc(-c3ccnc(N4CC5(COC5)C4)c3)ccc2Cl)NC(=O)c2ccnn2C)cc1 (stereo not drawn) [Example 183, N-[1-[[2-chloro-5-[2-(6-oxa-2-azaspiro[3.3]heptan-2-yl)-4-pyridyl]phenyl]methyl]-2-[4-(3-methylimidazol-4-yl)anilino]-2-oxo-ethyl]-2-methyl-pyrazole-3-carboxamide]
100 to 1000 | CN(C)[C@H]1CCN(c2cc(-c3ccc(Cl)c(CC(NC(=O)c4ccnn4C)C(=O)Nc4ccc(-c5cncn5C)cc4)c3)ccn2)C1 (stereo partly drawn) [Example 184, N-[1-[[2-chloro-5-[2-[(3S)-3-(dimethylamino)pyrrolidin-1-yl]-4-pyridyl]phenyl]methyl]-2-[4-(3-methylimidazol-4-yl)anilino]-2-oxo-ethyl]-2-methyl-pyrazole-3-carboxamide]
100 to 1000 | Cn1cncc1-c1ccc(NC(=O)C(Cc2cc(-c3ccnc(N4CC[C@H](CO)C4)c3)ccc2Cl)NC(=O)c2ccnn2C)cc1 (stereo partly drawn) [Example 185, N-[1-[[2-chloro-5-[2-[(3S)-3-(hydroxymethyl)pyrrolidin-1-yl]-4-pyridyl]phenyl]methyl]-2-[4-(3-methylimidazol-4-yl)anilino]-2-oxo-ethyl]-2-methyl-pyrazole-3-carboxamide]
100 to 1000 | Cn1cncc1-c1ccc(NC(=O)C(Cc2cc(-c3ccnc(N4CC[C@@H](CO)C4)c3)ccc2Cl)NC(=O)c2ccnn2C)cc1 (stereo partly drawn) [Example 186, N-[1-[[2-chloro-5-[2-[(3R)-3-(hydroxymethyl)pyrrolidin-1-yl]-4-pyridyl]phenyl]methyl]-2-[4-(3-methylimidazol-4-yl)anilino]-2-oxo-ethyl]-2-methyl-pyrazole-3-carboxamide]
100 to 1000 | Cn1cncc1-c1ccc(NC(=O)C(Cc2cc(-c3ccnc(N4CCC4CO)c3)ccc2Cl)NC(=O)c2ccnn2C)cc1 (stereo not drawn) [Example 187, N-[1-[[2-chloro-5-[2-[2-(hydroxymethyl)azetidin-1-yl]-4-pyridyl]phenyl]methyl]-2-[4-(3-methylimidazol-4-yl)anilino]-2-oxo-ethyl]-2-methyl-pyrazole-3-carboxamide]

Reference: patent publication US20220162191A1, “SMALL MOLECULE MODULATORS OF IL-17” (LEO PHARMA A/S, priority 2019, published 2022)
